Experimental data published in PMC5915743, “Screening of a Novel Fragment Library with Functional Complexity against Mycobacterium tuberculosis InhA” (Chemmedchem, 2018).

How the values were obtained:
[1] = molecular target: T1, Mycobacterium tuberculosis InhA (Mycobacterium tuberculosis, UniProt P9WGR1); test: InhA biochemical inhibition assay; conditions: for IC50: read-out: InhA pIC50 ^[a][e] (% 500 μM) (converted); for InhA pIC50 ^[a][e] (% 500 μM): tested up to 1 mM
Text: InhA biochemical inhibition assay on Mycobacterium tuberculosis InhA

[2] = molecular target: T1, Mycobacterium tuberculosis InhA; test: surface plasmon resonance, equilibrium; type: binding; conditions: read-out: SPR pK d ^[f] (converted)
Text: surface plasmon resonance, equilibrium on Mycobacterium tuberculosis InhA

[3] = molecular target: T1, Mycobacterium tuberculosis InhA; test: STD 1H NMR; type: binding; conditions: NADH-bound InhA; co-crystallised with ligands
[4] = published lead, not marked as earlier data in table

T1 sequence (P9WGR1 whole entry, looked up): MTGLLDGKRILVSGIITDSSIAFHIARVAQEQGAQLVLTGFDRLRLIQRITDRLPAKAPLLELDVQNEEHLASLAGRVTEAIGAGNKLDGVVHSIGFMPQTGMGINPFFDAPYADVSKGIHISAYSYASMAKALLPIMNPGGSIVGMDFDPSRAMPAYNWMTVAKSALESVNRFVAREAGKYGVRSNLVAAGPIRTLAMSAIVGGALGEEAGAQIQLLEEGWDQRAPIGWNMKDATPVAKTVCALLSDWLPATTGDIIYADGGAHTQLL

Cc1cncc(CNC(=O)NC2CCCCC2)c1 [compound 38, 38]
IC50 [1]: 100 µM | Kd [2]: 631 µM

Cc1cc(=O)c(C2CCN(c3ncccn3)CC2)c(C)[nH]1 [compound 41, 41]
IC50 [1]: 1 µM | Kd [2]: 6.31 µM

O=c1[nH]c(CC2CCCCC2)cc(O)c1C1CCN(c2ncccn2)CC1 [compound 42, 42]
InhA pIC50 ^[a][e] (% 500 μM) [1]: 6.5±0.03

Cc1cncc(CNC(=O)NC2CCN(c3ncccn3)CC2)c1 [compound 39, 39]
InhA pIC50 ^[a][e] (% 500 μM) [1]: 5.0±0.14 | Kd [2]: 20 µM

Cc1cc(N)n(Cc2nnc(Nc3ccn(Cc4c(F)cccc4Cl)n3)s2)n1 [compound 47, 47]
InhA pIC50 ^[a][e] (% 500 μM) [1]: 7.3±0.20 | Kd [2]: 0.0794 µM

CCOC(=O)[C@@H]1CCc2nc(C)sc2C1 [compound 22, 22]
IC50 [1]: 794 µM

Cc1ccn(C(C)c2nnc(Nc3ccn(Cc4c(F)cccc4Cl)n3)s2)n1 (stereo not shown) [compound 45, 45]
InhA pIC50 ^[a][e] (% 500 μM) [1, 4]: 8.1±0.27 | Kd [2]: 0.01 µM

CC(C)Cc1cc(O)c(C2CCN(c3ncccn3)CC2)c(=O)[nH]1 [compound 43, 43]
IC50 [1]: 6.31 µM | Kd [2]: 200 µM

O=C(NCc1cccnc1)NC1CCN(c2ncccn2)CC1 [compound 37, 37]
InhA pIC50 ^[a][e] (% 500 μM) [1]: 4.1±0.06

Cc1cc(N)n(Cc2ccc(C(=O)NCc3ccc(F)cc3Cl)cc2)n1 [compound 46, 46]
InhA pIC50 ^[a][e] (% 500 μM) [1]: 6.3±0.25 | Kd [2]: 0.501 µM

O=C(CCc1cccnc1)NC1CCN(c2ncccn2)CC1 [compound 36, 36]
IC50 [1]: > 1000 µM

Cc1cc(C)n(Cc2ccc(C(=O)NCc3ccc(F)cc3Cl)cc2)n1 [compound 44, 44]
InhA pIC50 ^[a][e] (% 500 μM) [1, 4]: 6.9±0.07

Cc1cc(N)n(Cc2ccccc2)n1 [compound 9, 9]
InhA pIC50 ^[a][e] (% 500 μM) [1]: 3.4±0.23 | Kd [2]: 501 µM

OCc1ccc(Cn2cccn2)cc1 [compound 4, 4]
IC50 [1]: > 1000 µM

Cc1cc(=O)c(-c2ccccc2)c(C)[nH]1 [compound 40, 40]
IC50 [1]: 15.8 µM | Kd [2]: 25.1 µM

NC(=O)C1=CN([C@@H]2O[C@H](COP(=O)(O)OP(=O)(O)OC[C@H]3O[C@@H](n4cnc5c(N)ncnc54)[C@H](O)[C@@H]3O)[C@@H](O)[C@H]2O)C=CC1 [NADH]
STD 1H NMR [3]: NADH binding was also observed in the STD‐NMR spectra
